The star is where a group is joined. Cbz = O=C(OCc1ccccc1)*; CH2F = FC*
What was measured:
BLIN cell lines = assay: Enhancement of apoptosis in BLIN cell lines (flow cytometry); format: cell-based, human
Description: Flow cytometry. Quantitation of apoptotic events was conducted using a FACS Calibur (BD Immunocytometry Systems). All analyses were conducted on cells with lymphoid light scatter characteristics (i.e., low to medium forward scatter and low 90° side scatter).
i. Mitochondrial transmembrane potential (Δψm). The cationic lipophilic fluorescent dye tetramethylrhodamine, ethyl ester, perchlorate (TMRE) was purchased from Molecular Probes, Inc. (Eugene, Oreg.). TMRE has a high degree of membrane permeability and accumulates into mitochondria in accord with the Nernstian equation (Farkas Biophys J. 1989;56:1053-1069). Cells were washed once and re-suspended to 0.5-1.0×10^6/ml in X-VIVO 10. TMRE was added to a final concentration of 50 nM and the cells were incubated in the dark at 37° C. for 15 minutes. Cells were then washed 2× in PBS, resuspended in PBS containing 2 μg/ml of propidium iodide (PI), and immediately analyzed. The protonophore […] (50 μM, CCCP, Sigma) was used as a positive control to effect loss of Δψm in 100% of cells.
ii. YO-PRO-1. The green fluorescent DNA intercalant dye YO-PRO-1 (Idziorek J Immunol Methods. 1995;185:249-258) was purchased from Molecular Probes as the Vybrant Apoptosis Assay Kit #4. Dual staining with YO-PRO and PI allows for the detection of early apoptotic cells (YO-PRO+/PI−) that have undergone initial changes in permeability to small molecules. Cells were stained according to the manufacturers recommendations.
iii. Annexin V. FITC-labeled Annexin V (BD Pharmingen, San Diego, Calif.) was used to detect external phosphatidylserine residues appearing on the external surface of early apoptotic cells (Koopman Blood. 1994;84:1415-1420). Cells were stained according to the manufacturers recommendations.
General experimental strategy. BLIN cell lines were removed from fibroblast monolayers, washed once and resuspended to 7.5×10^5/ml in X-VIVO 10. Two hundred μL of resuspended cells were added to 96-well flat-bottom microtiter plates (ISC Bioexpress, Kaysville, Vt.), followed by 0.5-1.0 μL of caspase inhibitors in DMSO. An identical volume of DMSO alone was added to separate wells as a vehicle control. This final DMSO concentration of 0.25-0.5% vol/vol had no adverse affect on any of the BLIN cell lines. At the indicated times the entire content of individual wells was harvested and stained in the fluorescent protocols described above.

[1] = system: caspase-9-deficient cells (BLIN-4L, RAMOS); assay: Annexin V apoptosis in caspase-9 siRNA-treated BLIN-4L and RAMOS cells; format: cell-based, human; settings: BLIN-4L and RAMOS electroporated with caspase-9 siRNA, 50 μM, 8 hours
Description: This technology employs a double algorithm. […] In preliminary studies using FITC-conjugated control siRNA (Dharmacon), we determined that the BLIN cell lines could be transfected to >80% efficiency by electroporation. […] BLIN-4L were then diluted into 4.8 ml of X-VIVO 10 supplemented with 10% FBS and 5 ng/ml of IL-7.
The inventors performed further studies to determine whether caspase-9 can be completely knocked out by means of RNA interference (RNAi). […] The inventors discovered that C9i induces apoptosis in caspase-9-deficient cells. BLIN-4L (FIG. 7A) and RAMOS (FIG. 7B) cells were electroporated with 8 μM SMARTpool (Dharmacon Inc.) caspase-9 siRNA or control siRNA and allowed to recover for 3 days in X-VIVO/10% FCS supplemented with 5 ng/ml IL-7 (BLIN-4L), or RPMI/10% FCS (RAMOS). After 3 days, the electroporated populations were assayed for Annexin V binding (to determine background levels of apoptosis), and then cultured in DMSO or 50 μM C9i for 8 hours. The cells were then harvested, stained with Annexin V, and analyzed by flow cytometry. […] Thus, no caspase-9 was present at all in the cells. […] Thus, C9i clearly is acting on another molecule in the cell besides just caspase-9. Also, one can conclude that caspase-9 is not necessary for C9i-induced apoptosis to occur.

[2] = system: RAMOS Burkitt lymphoma cell line; assay: Apoptosis by Annexin V staining and flow cytometry, RAMOS; format: cell-based, human; settings: 50 μM, 18 hours
BLIN-3 cells = assay: Loss of mitochondrial transmembrane potential (TMRE) and YO-PRO permeability in BLIN-3; format: cell-based, human; settings: BLIN-3, FIG. 2
Description: Numbers in the histograms indicate the percentage of PI^- cells that underwent a loss of Δψm. Numbers in the contour plots indicate the percentage of Annexin V^+/PI^- cells. […] Numbers in the contour plots indicate the percentage of YO^- PRO^+/PI^- cells. Numbers in the histograms indicate the percentage of PI^- cells that underwent a loss of Δψm. Flow cytometry. Quantitation of apoptotic events was conducted using a FACS Calibur (BD Immunocytometry Systems). All analyses were conducted on cells with lymphoid light scatter characteristics (i.e., low to medium forward scatter and low 90° side scatter). i. Mitochondrial transmembrane potential (Δψm). The cationic lipophilic fluorescent dye tetramethylrhodamine, ethyl ester, perchlorate (TMRE) was purchased from Molecular Probes, Inc. (Eugene, Oreg.). TMRE has a high degree of membrane permeability and accumulates into mitochondria in accord with the Nernstian equation (Farkas Biophys J. 1989;56:1053-1069). Cells were washed once and re-suspended to 0.5-1.0×10^6/ml in X-VIVO 10. TMRE was added to a final concentration of 50 nM and the cells were incubated in the dark at 37° C. for 15 minutes. […] ii. YO-[…]. The green fluorescent DNA intercalant dye YO-PRO-1 (Idziorek J Immunol Methods. 1995;185:249-258) was purchased from Molecular Probes as the Vybrant Apoptosis Assay Kit #4. […]

[3] = system: CCRF-CEM T lymphoma cell line; assay: Apoptosis by Annexin V staining and flow cytometry, CCRF-CEM; format: cell-based; settings: 50 μM, 18 hours
Description: FIG. 4 is a pair of graphs showing the effect of […] on various cell lines, as determined by Annexin V staining and flow cytometry. The cells included the B-cell precursor ALL cell lines […], and NALM-6, the RAMOS, RAJI, and DAUDI Burkitt lymphoma cell lines, the CCRF-CEM, JURKAT, and H9 T lymphoma cell lines, the K-562 erythroleukemia cell line, and resting or activated (i.e., CD3/CD28 cross-linked) normal human T cells. […] Flow cytometry. Quantitation of apoptotic events was conducted using a FACS Calibur (BD Immunocytometry Systems). All analyses were conducted on cells with lymphoid light scatter characteristics (i.e., low to medium forward scatter and low 90° side scatter). iii. Annexin V. […] Cells were stained according to the manufacturers recommendations.

With “Z-LEHD-fmk (Cbz-LEHD-CH2F; SMILES CC(C)C[C@H](NC(=O)OCc1ccccc1)C(=O)N[C@@H](CCC(=O)O)C(=O)N[C@@H](Cc1c[nH]cn1)C(=O)N[C@@H](CC(=O)O)C(=O)CF) [C9i]” the “lowest concentration at which enhancement of apoptosis occurred” value (BLIN cell lines) was 6.25 µM, the “promotion of apoptosis in healthy cells” value (BLIN cell lines; BLIN-3 and BLIN-4L maintained on adherent fibroblasts and/or IL-7, 8 hours) was “did not promote apoptosis” and the “promotion of apoptosis in healthy cells” value (BLIN cell lines; BLIN-3 and BLIN-4L maintained on adherent fibroblasts and/or IL-7, 18 hours) was “promoted apoptosis”. For the same substance, the “induction of apoptosis in caspase-9-deficient cells (Annexin V)” value [1] was “still induced apoptosis”, the “sensitivity (fold-increase in Annexin V+ cells vs DMSO)” value [2] was “extremely sensitive” and the “enhancement of apoptosis (YO-PRO+/PI− cells, reduced TMRE staining) versus concentration” value (BLIN-3 cells) was “dose-dependent”. The “sensitivity (fold-increase in Annexin V+ cells vs DMSO)” value [3] was “extremely sensitive”.

Source: patent publication US20060040870A1, “Enhancement of apoptosis by caspase-9 inhibitors” (priority 2004, published 2006)
